# Measurements as given in patent US20190369111A1, “MOLECULAR KINETICS EVALUATION METHOD AND SCREENING METHOD” (Tokyo University of Science Foundation, priority 2016, published 2019).
# Target: T1, endogenous wild-type K-Ras protein (Homo sapiens, UniProt P01116)
# T1 construct: an endogenous wild-type K-Ras protein and wild-type H-Ras protein in HeLa cells; endogenous in cells; host or cells: HeLa cells
# Test: Degradation of endogenous wild-type K-Ras protein in HeLa cells, Western blot analysis
# Format: cell-based
# Conditions: 48 hours after addition
# Procedure: HeLa cells were seeded in a 24-well plate at a cell density of 8×10^4 cells/well, and then cultured under conditions of 37° C. and 5 vol % CO2 for 16 hours.
# After 16 hours from cell seeding, TUS-007 was added to HeLa cells as follows. As a medium, a serum-free medium (37° C.) in which 1 mass % L-glutamine solution (Sigma-Aldrich) was added to D-MEM (high D-glucose, phenol red, sodium pyruvate (Wako Pure Chemical Industries, Ltd.)) was used. It is noted that the L-glutamine solution was added immediately before use. A DMSO solution containing TUS-007 was mixed with the medium so that the concentration of DMSO was 1 vol %, and added to each well at 500 μL/well, and cultured under conditions of 37° C. and 5 vol % CO2. As a control, DMSO was used.
# The medium was removed 48 hours after addition of TUS-007, and then PBS was added to wash the cells. […]
# After electrophoresis, proteins were transferred to a PVDF membrane (Immobion™-P, Millipore) under conditions of 100 V and 2 hours using a tank-type blotting device and a transfer buffer (25 mM Tris-HCl, 195 mM glycine, 0.01% SDS, 15% methanol). […] Subsequently, the membrane was treated with a chemiluminescence reagent Immobilon™ Western (Millipore), and then chemiluminescence was detected using a lumino image analyzer LAS-3000 (FUJIFILM Corporation). […]
# T1 sequence (P01116 1-188 isoform P01116-2): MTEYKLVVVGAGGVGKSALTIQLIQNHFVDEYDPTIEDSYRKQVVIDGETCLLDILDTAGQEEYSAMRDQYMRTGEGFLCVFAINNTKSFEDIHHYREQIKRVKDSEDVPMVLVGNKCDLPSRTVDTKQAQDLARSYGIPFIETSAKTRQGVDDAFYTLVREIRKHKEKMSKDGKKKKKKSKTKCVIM
smiles,measurement,value
CC[C@@H](C)[C@H](NC(=O)CCCCCCNC(=O)[C@H](CC(C)C)NC(=O)CNC(=O)c1cc(Cl)ccc1Cl)C(=O)Nc1ccc2[nH]c(Cc3c[nH]c4ccccc34)nc2c1 [TUS-007],amount of endogenous wild-type K-Ras protein,reduced
